ChEMBL document CHEMBL1201862, “PubChem BioAssay data set” (2004)
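Tested at 5 concentrations; 48 h exposure; 96-well plates; endpoints linearly interpolated, else capped at highest concentration. At the GI50, growth is halved.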 Activity calls are given as the source filed them. Cut-off read from the data, not from the text of the source: active = GI50 up to about 1.1 µM and inactive = higher.

Experiments:
Test in all cases: growth of human tumour cells (NCI), 48 h
IGROV-1 = tested on: IGROV-1
SNB-19 = tested on: SNB-19
HCT-116 = tested on: HCT-116
ACHN = tested on: ACHN
A549 = tested on: A549
CAKI-1 = tested on: CAKI-1
MDA-MB-231 = tested on: MDA-MB-231
SW-620 = tested on: SW-620
NCI-H522 = tested on: NCI-H522
KM12 = tested on: KM12
SN12C = tested on: SN12C
SR = tested on: SR
LOX IMVI = tested on: LOX IMVI
UACC-257 = tested on: UACC-257
DU-145 = tested on: DU-145
Hs-578T = tested on: Hs-578T
COLO 205 = tested on: COLO 205
RXF 393 = tested on: RXF 393
Malme-3M = tested on: Malme-3M

| SMILES | GI50 (IGROV-1) | GI50 (SNB-19) | GI50 (HCT-116) | GI50 (ACHN) | GI50 (A549) | GI50 (CAKI-1) | GI50 (MDA-MB-231) | GI50 (SW-620) | GI50 (NCI-H522) | GI50 (KM12) | GI50 (SN12C) | GI50 (SR) | GI50 (LOX IMVI) | GI50 (UACC-257) | GI50 (DU-145) | GI50 (Hs-578T) | GI50 (COLO 205) | GI50 (RXF 393) | GI50 (Malme-3M) |
| --- | --- | --- | --- | --- | --- | --- | --- | --- | --- | --- | --- | --- | --- | --- | --- | --- | --- | --- | --- |
| Cc1c2c(n(CC(c3ccccc3)c3ccccc3)c1C)NN=C(C#N)S2(=O)=O | > 100 µM (inactive) | > 100 µM (inactive) | 74 µM (inactive) | > 100 µM (inactive) | > 100 µM (inactive) | > 100 µM (inactive) | 33.9 µM (inactive) | > 100 µM (inactive) | 45.6 µM (inactive) | 66.2 µM (inactive) | > 100 µM (inactive) | 35.2 µM (inactive) | > 100 µM (inactive) | > 100 µM (inactive) | > 100 µM (inactive) | 43.1 µM (inactive) | > 100 µM (inactive) |  |  |
| Cc1c(C(=O)/C=C/c2ccc(N(C)C)cc2)c(=O)n(-c2ccccc2)n1C | > 100 µM (inactive) | > 100 µM (inactive) | > 100 µM (inactive) | > 100 µM (inactive) | > 100 µM (inactive) | > 100 µM (inactive) |  | > 100 µM (inactive) | > 100 µM (inactive) | > 100 µM (inactive) | > 100 µM (inactive) |  | > 100 µM (inactive) | > 100 µM (inactive) |  |  | > 100 µM (inactive) | > 100 µM (inactive) | > 100 µM (inactive) |
| COc1nc(=O)n(C2CC(N=[N+]=[N-])C(CO)O2)cc1C (configuration not stated) | > 100 µM (inactive) | > 100 µM (inactive) | > 100 µM (inactive) | > 100 µM (inactive) | > 100 µM (inactive) |  | > 100 µM (inactive) | > 100 µM (inactive) | > 100 µM (inactive) | > 100 µM (inactive) | > 100 µM (inactive) | > 100 µM (inactive) | > 100 µM (inactive) | > 100 µM (inactive) | > 100 µM (inactive) | > 100 µM (inactive) |  |  | > 100 µM (inactive) |
| Cc1ccc(S(=O)(=O)Nn2c(C)cc3ccc(S(=O)(=O)Nc4ccccc4[N+](=O)[O-])cc3c2=O)cc1 | 43 µM (inactive) | > 100 µM (inactive) | 47.4 µM (inactive) | > 100 µM (inactive) | 72.8 µM (inactive) | > 100 µM (inactive) | > 100 µM (inactive) | > 100 µM (inactive) | > 100 µM (inactive) | 18.2 µM (inactive) | 82.4 µM (inactive) | > 100 µM (inactive) | > 100 µM (inactive) | > 100 µM (inactive) | > 100 µM (inactive) | 45.3 µM (inactive) | 18.6 µM (inactive) |  | > 100 µM (inactive) |
| OC[C@]1(n2nc3ccccc3n2)OC[C@@H]1c1ccccc1 | 37.2 µM (inactive) | > 100 µM (inactive) | 30.4 µM (inactive) | 36.6 µM (inactive) | 64.3 µM (inactive) | 27.2 µM (inactive) | 74.3 µM (inactive) |  | 20.1 µM (inactive) | 45.6 µM (inactive) | 43.1 µM (inactive) | 32.2 µM (inactive) | 42.5 µM (inactive) | 93.8 µM (inactive) | 27.5 µM (inactive) | 56 µM (inactive) | 55.5 µM (inactive) |  | 19.4 µM (inactive) |
| O=S(=O)(O)c1ccc(/N=N/c2ccc(/N=N/c3c(O)ccc4cc(S(=O)(=O)O)ccc34)cc2)cc1 | > 100 µM (inactive) | > 100 µM (inactive) | > 100 µM (inactive) | > 100 µM (inactive) | > 100 µM (inactive) | > 100 µM (inactive) | > 100 µM (inactive) | > 100 µM (inactive) | > 100 µM (inactive) | > 100 µM (inactive) |  | > 100 µM (inactive) |  | > 100 µM (inactive) |  | > 100 µM (inactive) | > 100 µM (inactive) | > 100 µM (inactive) | > 100 µM (inactive) |
| CC(=O)Nc1ccc(S(=O)(=O)Nc2nnc(S(N)(=O)=O)s2)cc1 |  | > 100 µM (inactive) | > 100 µM (inactive) | > 100 µM (inactive) | > 100 µM (inactive) | > 100 µM (inactive) | > 100 µM (inactive) | > 100 µM (inactive) | > 100 µM (inactive) | > 100 µM (inactive) |  | > 100 µM (inactive) | > 100 µM (inactive) |  | > 100 µM (inactive) |  | > 100 µM (inactive) | > 100 µM (inactive) | > 100 µM (inactive) |
| COc1ccc([C@@]23Oc4cc(OC)cc(OC)c4[C@]2(O)[C@H](O)[C@H](C(N)=O)[C@H]3c2ccccc2)cc1 [DIDESMETHYLROCAGLAMIDE] | < 0.01 µM (active) | < 0.01 µM (active) | < 0.01 µM (active) | < 0.01 µM (active) | < 0.01 µM (active) | < 0.0164 µM (active) | < 0.0108 µM (active) | < 0.01 µM (active) | < 0.01 µM (active) | < 0.01 µM (active) | < 0.01 µM (active) |  | < 0.01 µM (active) | < 0.0162 µM (active) | < 0.01 µM (active) | < 0.01 µM (active) | < 0.01 µM (active) | < 0.01 µM (active) | < 0.01 µM (active) |
